Data reported in patent publication US5602128A, “N-heterocycloalkyl carboxamides as serotonergic agents” (American Home Products Corporation, priority 1994, dated 1997).

Molecular target: T1, 5-HT1A serotonin receptor (Rattus norvegicus, UniProt P19327)
T1 construct: following the procedure of Hall et al., J. Neurochem; 44, 1685(1985); from tissue
T1 sequence (P19327 1-422): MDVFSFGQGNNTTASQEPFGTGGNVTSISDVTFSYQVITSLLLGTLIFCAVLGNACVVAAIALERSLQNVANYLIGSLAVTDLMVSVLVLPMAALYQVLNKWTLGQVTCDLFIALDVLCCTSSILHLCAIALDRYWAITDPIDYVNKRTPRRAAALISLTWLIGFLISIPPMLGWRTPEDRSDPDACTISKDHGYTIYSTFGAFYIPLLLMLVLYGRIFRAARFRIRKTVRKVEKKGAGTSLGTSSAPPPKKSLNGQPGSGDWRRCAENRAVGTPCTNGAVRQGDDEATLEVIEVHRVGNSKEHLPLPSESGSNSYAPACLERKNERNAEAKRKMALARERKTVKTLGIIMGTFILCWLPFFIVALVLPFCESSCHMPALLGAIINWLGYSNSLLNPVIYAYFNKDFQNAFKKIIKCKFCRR
Experiment: displacement of [^3 H] 8-OHDPAT from the 5-HT1A serotonin receptor (procedure of Hall et al.)
Conditions: read-out: 5-HT1A Binding (IC50)
From the text: High affinity for the serotonin 5-HT1A receptor was established by testing the claimed compound's ability to displace [^3 H] 8-OHDPAT (dipropylaminotetralin) from the 5-HT1A serotonin receptor following the procedure of Hall et al., J. Neurochem. 44, 1685(1985). […] The anxiolytic activity of buspirone is believed to be, at least partially, due to its 5-HT1A receptor affinity (Vander Maclen et al., Eur. J. Pharmacol. 1986, 129 (1-2) 133-130).
The result of the standard experimental test procedure described in the preceding paragraph was as follows when applied to the representative compound of this invention: […]

COc1ccccc1N1CCN(CCC(C(=O)NCCN2CCOCC2)c2ccccc2)CC1 (stereo not shown) [Example 1, 4-[4-(2-Methoxy-phenyl)-piperazin-1-yl]-N-(2-morpholin-4-yl-ethyl)-2phenyl-butyramide]
IC50: 95.2 nM
